Consider eight molecules from patent US4965261A, “Substituted benzoxazinorifamycin derivative and antibacterial agent containing the same” (Kanegafuchi Kagaku Kogyo Kabushiki Kaisha, priority 1988, dated 1990).

SMILES strings stand for the structures. ≈ marks a conversion by molar mass, not a printed value. A value given as a limit tells only on which side of the number the result lay.

Assay [1] relates to Bacillus subtilis IFO 3134. Put plainly: Antibacterial activity, standard method of Japan Society of Chemotherapy (Table 2). The following applies: IFO3134, read-out: Minimal inhibitory concentration. In kind it is cell-based. From the text:
(§1) Derivative No. in Table 2 corresponds to derivative No. in Table 1.

In assay [2] the test system is Escherichia coli IFO 12734. Described as above. The assay is classed as cell-based. As to conditions: IFO12734, read-out: Minimal inhibitory concentration.
Text: as §1

The test system of assay [3] is Klebsiella pneumoniae IFO 3512. The assay is described as above. The following applies: IFO3512, read-out: Minimal inhibitory concentration. The assay is classed as cell-based.
Text: as §1

Assay [4] relates to Micrococcus luteus IFO 12708. The assay is described as above. The following applies: IFO12708, read-out: Minimal inhibitory concentration. In kind it is cell-based.
Text: as §1

The test system of assay [5] is Mycobacterium smegmatis ATCC 607. The description is as above. As to conditions: Mycolicibacterium smegmatis, ATCC607, read-out: Minimal inhibitory concentration. The assay is classed as cell-based.
Text: as §1

For assay [6], the system named is Staphylococcus aureus IFO 12732. The description is as above. In kind it is cell-based. As to conditions: IFO12732, read-out: Minimal inhibitory concentration.
Text: as §1

For assay [7], the system named is Mycobacterium tuberculosis H37 Rv. As to the kind of experiment: Antibacterial activity against a tubercle bacillus, two-fold dilution in Kirchner liquid medium. The following applies: Kirchner medium with 10% bovine serum, 37° C., 4 weeks.

Take `CCOc1c(N2CCN(CC)CC2)ccc2nc3c4c5c6c(C)c(O)c4c(=O)c(c-3oc12)NC(=O)C(C)=CC=CC(C)C(O)C(C)C(O)C(C)C(OC(C)=O)C(C)C(OC)C=COC(C)(O6)C5=O` (stereo not drawn) [Derivative No. 6]: the MIC is at most 0.02 µg/mL in assay [1]; 5 µg/mL (≈ 5.31 µM) in assay [2]; 2.5 µg/mL (≈ 2.66 µM) in assay [3]; at most 0.02 µg/mL in assay [4]; 0.63 µg/mL (≈ 0.669 µM) in assay [5]; at most 0.02 µg/mL in assay [6]. The molecule also showed a Minimal inhibitory concentration in assay [7] (Table 4) of 0.008 µg/mL (≈ 0.0085 µM).

`COc1c(N2CCCC2)ccc2nc3c4c5c6c(C)c(O)c4c(=O)c(c-3oc12)NC(=O)C(C)=CC=CC(C)C(O)C(C)C(O)C(C)C(OC(C)=O)C(C)C(OC)C=COC(C)(O6)C5=O` (stereo not drawn) [Derivative No. 1]: the MIC was 0.16 µg/mL (≈ 0.181 µM) in assay [1]; over 10 µg/mL in assay [2]; over 10 µg/mL in assay [3]; 0.04 µg/mL (≈ 0.0452 µM) in assay [4]; 2.5 µg/mL (≈ 2.83 µM) in assay [5]; at most 0.02 µg/mL in assay [6]. The Minimal inhibitory concentration in assay [7] (Table 3) stood at 0.017 µg/mL (≈ 0.0192 µM).

Turning to `COc1c(N2CCN(C)CC2)cc(C)c2nc3c4c5c6c(C)c(O)c4c(=O)c(c-3oc12)NC(=O)C(C)=CC=CC(C)C(O)C(C)C(O)C(C)C(OC(C)=O)C(C)C(OC)C=COC(C)(O6)C5=O` (stereo not drawn) [Derivative No. 16], the MIC in assay [1] is at most 0.02 µg/mL; in assay [2] it was 5 µg/mL (≈ 5.39 µM); in assay [3], 5 µg/mL (≈ 5.39 µM); in assay [4], at most 0.02 µg/mL; in assay [5] it was 1.25 µg/mL (≈ 1.35 µM); in assay [6], at most 0.02 µg/mL.

Take `CCN1CCN(c2ccc3nc4c5c6c7c(C)c(O)c5c(=O)c(c-4oc3c2OC(C)C)NC(=O)C(C)=CC=CC(C)C(O)C(C)C(O)C(C)C(OC(C)=O)C(C)C(OC)C=COC(C)(O7)C6=O)CC1` (stereo not drawn) [Derivative No. 12]: the MIC in assay [1] is at most 0.02 µg/mL; in assay [2], 5 µg/mL (≈ 5.23 µM); in assay [3] it was 5 µg/mL (≈ 5.23 µM); in assay [4], at most 0.02 µg/mL; in assay [5], 1.25 µg/mL (≈ 1.31 µM); in assay [6] it was at most 0.02 µg/mL. This molecule came in with a Minimal inhibitory concentration in assay [7] (Table 3) of 0.017 µg/mL (≈ 0.0178 µM).

`CCCOc1c(N2CCCC2)ccc2nc3c4c5c6c(C)c(O)c4c(=O)c(c-3oc12)NC(=O)C(C)=CC=CC(C)C(O)C(C)C(O)C(C)C(OC(C)=O)C(C)C(OC)C=COC(C)(O6)C5=O` (stereo not drawn) [Derivative No. 9]: the MIC is 0.08 µg/mL (≈ 0.0877 µM) in assay [1]; over 10 µg/mL in assay [2]; over 10 µg/mL in assay [3]; 0.08 µg/mL (≈ 0.0877 µM) in assay [4]; 1.25 µg/mL (≈ 1.37 µM) in assay [5]; 0.04 µg/mL (≈ 0.0439 µM) in assay [6]. The same molecule returned a Minimal inhibitory concentration in assay [7] (Table 3) of 0.035 µg/mL (≈ 0.0384 µM).

On to `COc1c(N2CCN(C)CC2)ccc2nc3c4c5c6c(C)c(O)c4c(=O)c(c-3oc12)NC(=O)C(C)=CC=CC(C)C(O)C(C)C(O)C(C)C(OC(C)=O)C(C)C(OC)C=COC(C)(O6)C5=O` (stereo not drawn) [Derivative No. 2], for which the MIC was at most 0.02 µg/mL in assay [1]; 2.5 µg/mL (≈ 2.74 µM) in assay [2]; 2.5 µg/mL (≈ 2.74 µM) in assay [3]; at most 0.02 µg/mL in assay [4]; 1.25 µg/mL (≈ 1.37 µM) in assay [5]; at most 0.02 µg/mL in assay [6]. Besides, the Minimal inhibitory concentration in assay [7] (Table 3) worked out at 0.15 µg/mL (≈ 0.164 µM).

`COc1c(N2CCCC2)cc(C)c2nc3c4c5c6c(C)c(O)c4c(=O)c(c-3oc12)NC(=O)C(C)=CC=CC(C)C(O)C(C)C(O)C(C)C(OC(C)=O)C(C)C(OC)C=COC(C)(O6)C5=O` (stereo not drawn) [Derivative No. 15]: the MIC in assay [1] is 0.08 µg/mL (≈ 0.0891 µM); in assay [2], over 10 µg/mL; in assay [3] it was over 10 µg/mL; in assay [4], 0.04 µg/mL (≈ 0.0445 µM); in assay [5] it was 1.25 µg/mL (≈ 1.39 µM); in assay [6], 0.04 µg/mL (≈ 0.0445 µM). The molecule further registered a Minimal inhibitory concentration in assay [7] (Table 3) of 0.008 µg/mL (≈ 0.00891 µM).

Regarding `COC1C=COC2(C)Oc3c(C)c(O)c4c(=O)c(c5oc6c(OCC(C)C)c(N7CCN(CC(C)C)CC7)ccc6nc-5c4c3C2=O)NC(=O)C(C)=CC=CC(C)C(O)C(C)C(O)C(C)C(OC(C)=O)C1C` (stereo not drawn) [Derivative No. 14], the MIC is 0.08 µg/mL (≈ 0.0802 µM) in assay [1]; over 10 µg/mL in assay [2]; over 10 µg/mL in assay [3]; 0.31 µg/mL (≈ 0.311 µM) in assay [4]; 0.63 µg/mL (≈ 0.632 µM) in assay [5]; 0.08 µg/mL (≈ 0.0802 µM) in assay [6].
